The assay relates to MDA-MB-468 breast. The experiment in a line: NCI tumour cell line growth inhibition, 48 h.

The structures appear in SMILES notation. Values joined by “and” are separate entries in the source; they are usually repeats but may differ in a detail not shown here. Equal values may be shown once.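 Briefly, cells in 96-well plates were exposed to five compound concentrations for 48 h, and endpoints were estimated by linear interpolation. The concentration for 50% growth inhibition is given as GI50. TGI: total growth inhibition.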 Where a SMILES comes first, the peptide text is derived from it. [ ]: non-standard residue; d: D form. The star is where a group is joined. X13 = OC[C@H](CC1CCCCC1)N*; Aib = CC(C)(N)C(=O)O A value given as a limit tells only on which side of the number the result lay.

Consider `Oc1c(C(Nc2ccccn2)c2cccc(Oc3ccccc3)c2)ccc2cccnc12` (stereo unspecified), for which the GI50 is 441 nM and the TGI was found to be 8.92 µM. In the case of `Cc1ccc(C2=Nn3c(nnc3-c3ccccc3)SC2)cc1`, the GI50 is 1690 nM and the TGI worked out at 8.08 µM. Take `CN1CCN(C(=O)[C@@]2(C)CC[C@]3(C)CC[C@]4(C)C(=CC[C@@H]5[C@@]6(C)CCC(=O)NC(C)(C)[C@@H]6CC[C@]54C)[C@@H]3C2)CC1`: the GI50 was 1220 nM and the TGI turned out to be 2.82 µM.

As to `C/C(CCC(=O)O)=N/Nc1ccc([N+](=O)[O-])cc1`, the GI50 was greater than 100000 nM and the TGI was greater than 100 µM. With `C[C@H](c1ccc(F)cc1CCCC(=O)O)N(c1cc(F)ccc1F)S(=O)(=O)c1ccc(Cl)cc1`, the GI50 is 17300 nM and the TGI is 84.7 µM. In the case of `COc1ccc2c(c1)N(Cc1ccc(Cl)cc1)CCC2N1CCCC1=O` (stereo unspecified), the GI50 is 3410 nM and the TGI amounted to 19.9 µM. With `COc1cc(-c2cc3ncccc3c3nc(OCCN(C)C)c4cccnc4c23)cc(OC)c1OC`, the GI50 is 919 nM and the TGI was found to be 5.36 µM. As to `CCC(C)(C)c1cc(O)c(C(C)(C)CC)cc1O`, the GI50 is 2110 nM and the TGI came out at 5.8 µM. Consider `CCCCCCCCCCCCCC[n+]1ccccc1`, for which the GI50 was 111 nM and the TGI is 0.631 µM. `CCN1CCC(CC(=O)Nc2n[nH]c3nnc(-c4cccc(F)c4F)cc23)CC1`: the GI50 was 3450 nM and the TGI was greater than 23 µM. Take `CCCCCCC1N=C(N)N=C(N)N1c1cccc(Cl)c1` (stereo unspecified): the GI50 is 122 nM and the TGI came out at 0.936 µM.

As to `Cn1cc(C2=C(c3c4n(c5ccccc35)CCNC4)C(=O)NC2=O)c2ccccc21`, the GI50 was 3810 nM and the TGI is greater than 20.9 µM. Regarding `Oc1cc(N2CC2)c(O)cc1N1CC1`, the GI50 is 201 nM and the TGI was found to be 1.27 µM. In the case of `Cc1ccccc1C1=C(c2cn(C)c3ccccc23)C(=O)NC1=O`, the GI50 is 15500 nM and the TGI is greater than 25 µM. As to `COc1ccc(-c2cc(/C=C3\C(=O)Nc4cc(Cl)ccc43)[nH]n2)cc1`, the GI50 is 2620 nM and the TGI is 9.48 µM. Turning to `CC1=C/C=C/C(=O)O[C@@H]([C@H](C)[C@H](O)[C@@H](C)NC(=O)C(C)C)[C@H](C)/C=C/C(C)=C/[C@H]2C=CCC[C@@]2(C)\C=C\1`, the GI50 was 110 nM and 23.5 nM; the TGI is 6.41 µM.

On to `N#Cc1c(NCc2ccccc2)nc(NCc2ccccc2)c(C#N)c1-c1ccc(Cl)cc1`, for which the GI50 is greater than 50000 nM and the TGI was greater than 50 µM.

For `CN(C)C1CCN(Cc2ccc(NC(=O)c3cncc(C#Cc4cnc(N)c5ncccc45)c3)cc2C(F)(F)F)CC1`, the GI50 is 6490 nM and the TGI was 16.5 µM.

`Cc1ccc(-c2nc3nc(-c4ccc(F)cc4)nc(N4CCNCC4)c3o2)cc1`: the GI50 was 1740 nM and the TGI amounted to 3.38 µM. As to `Cc1ccc([P+](Cc2ccccc2)(c2ccccc2)c2ccccc2)cc1`, the GI50 was 517 nM and the TGI came to 8.64 µM. `COC1=CC(c2ccc[nH]2)=N/C1=C\c1[nH]c(C)c(C(=O)CCC(=O)Oc2ccc3c(c2)CCC2C3CC[C@]3(C)[C@@H](O)CC[C@@H]23)c1C` (stereo partly specified): the GI50 was 2520 nM and the TGI was 39.8 µM. `CN1CC=C(c2cc(NC(=O)Nc3ccc(Oc4ccnc(NC(=O)C5CC5)c4)c(F)c3)cc(C(F)(F)F)c2)CC1`: the GI50 was 286 nM and the TGI was 1.99 µM.

Turning to `O=C(/C=C/C12c3ccccc3C(c3ccccc31)C1C(=O)N(c3ccc(Cl)cc3)C(=O)C12)c1ccccn1` (stereo unspecified), the GI50 is 398 nM. With `N#CC1C[C@@H]2CC3(CCC2CN1C(=O)c1ccccc1)OCCO3` (stereo partly specified), the GI50 is greater than 100000 nM and the TGI is greater than 100 µM. Turning to `CC(c1cc(Cl)ccc1O)c1cc(Cl)ccc1O`, the GI50 was 2980 nM and the TGI was found to be 9.47 µM. For `CN1CCN(Cc2ccc(NC(=O)c3cncc(C#Cc4c(N)ncc5ccc(C#N)cc45)c3)cc2C(F)(F)F)CC1`, the GI50 was 2890 nM and the TGI was 11.5 µM. For `NC(=O)c1cccc2c(N[C@H](CN3CCC3)c3ccc(Cl)c(C(F)(F)F)c3)ncnc12`, the GI50 was 108 nM and the TGI was 1.28 µM.

In the case of `CS(=O)(=O)CCNCc1ccc(-c2ccc3ncnc(Nc4ccc(OCc5cccc(F)c5)c(Cl)c4)c3c2)o1`, the GI50 is 51.8 nM and 57.1 nM and 13 nM; the TGI is 0.818 µM and 0.999 µM and 0.152 µM. Turning to `Cc1ccc(F)c(NC(=O)Nc2ccc(-c3cccc4[nH]nc(N)c34)cc2)c1`, the GI50 is 2370 nM and 1860 nM; the TGI is 5.28 µM and 4.61 µM. Turning to `O=C([O][Hg][c]1ccccc1)c1ccccc1`, the GI50 is 435 nM and the TGI was 1.94 µM. Turning to `COC(=O)c1ccc2nc(-c3cc4ccccc4n3C)n(CCCCOc3cc4c(cc3OC)C(=O)N3CCC[C@H]3C=N4)c2c1`, the GI50 is 356 nM and the TGI is 1.26 µM. For the compound `O=C(CCCn1c2c(sc3ccccc32)c(=O)n2nnc(-c3ccccc3)c12)NCCc1cnc[nH]1`, the GI50 was 664 nM and the TGI was 1.94 µM. For `CNC(=O)c1nn(C)c2c1C(C)(C)Cc1cnc(Nc3cccc(N4CCN(C)CC4)c3)nc1-2`, the GI50 is 348 nM and the TGI came out at 3.3 µM. Turning to `CNCc1cccc2c1OCCCCCCC(C)(O)CC(C)(C)S(=O)(=O)c1ccc(cc1)-c1cnc(N)c(n1)C(=O)N2` (stereo unspecified), the GI50 is 196 nM and the TGI worked out at 1.16 µM. Turning to `OCc1ccc(-c2csc(-c3ccc(CO)o3)c2)o1`, the GI50 is 188 nM and the TGI is 0.486 µM. Consider `CNS(=O)(=O)OCC1OC(n2cnc3cncnc32)C(O)C1O` (stereo unspecified), for which the GI50 is greater than 100000 nM and the TGI was greater than 100 µM. For `CS(=O)(=O)N1CCC(n2c(=O)c(Oc3ccc(F)cc3F)cc3cnc(NC4CCOCC4)nc32)CC1` the same measures were greater than 25000 nM and greater than 25 µM. `O=C(c1ccccc1)C(Cl)C(Cl)c1ccccc1` (stereo unspecified): the GI50 was 1380 nM and the TGI came out at 4.31 µM.

For the compound `C[C@@H](N)COc1ccc(-c2cnc3ccc(N[C@H](C)c4cccc(F)c4)nn23)cc1`, the GI50 was 1130 nM and the TGI came out at 2.67 µM. Regarding `CC(=O)NC(C)(C)C(=O)N[C@@H](C)C(=O)NC(C)(C)C(=O)N[C@@H](C)C(=O)NC(C)(C)C(=O)N[C@@H](C)C(=O)N[C@@H](CCC(N)=O)C(=O)NC(C)(C)C(=O)N[C@H](C(=O)NC(C)(C)C(=O)NCC(=O)N[C@@H](CC(C)C)C(=O)NC(C)(C)C(=O)N1CCC[C@H]1C(=O)N[C@H](C(=O)NC(C)(C)C(=O)NC(C)(C)C(=O)N[C@@H](CCC(N)=O)C(=O)N[C@@H](CCC(N)=O)C(=O)N[C@H](CO)CC1CCCCC1)C(C)C)C(C)C` (Ac-[Aib]A[Aib]A[Aib]AQ[Aib]V[Aib]GL[Aib]PV[Aib][Aib]QQ-X13), the GI50 is 665 nM and the TGI was greater than 4.35 µM. Turning to `CCn1c(-c2nonc2N)nc2c(C#CC(C)(C)O)ncc(OC3CCNCC3)c21`, the GI50 was 267 nM and the TGI was found to be 10.4 µM.

Source of the values: PubChem BioAssay (NCI).
